How the values were obtained:
hlyA gene of Listeria = assay: PCR targeting the hlyA gene after EMA treatment and topoisomerase poison or DNA gyrase poison treatment; format: cell-based, Listeria monocytogenes; settings: Listeria injured cells
Description: (§1) The live cell count of the live cell suspension was 1.3×10^8 cfu/ml
(§2) Therefore, the time for leaving the suspension at 4° C. under light shielding after the addition of EMA was shortened to 5 minutes, and the visible light irradiation time was also shortened to 5 minutes.
(§3) As described above, 1 tube of 1 ml EMA-untreated live cell suspension, […] of 1 ml EMA-treated live cell suspension, 1 tube of 1 ml EMA-untreated injured cell suspension, and 7 tubes of 1 ml EMA-treated injured cell suspension were prepared.
(§4) The EMA-treated live cell and injured cell suspensions were divided into 6 sets, each of which consisted of 1 tube of the live cell suspension and 1 tube of injured cell suspension.
A master mix (total volume: 50 μl) of the following composition was prepared. • Ex-Taq® (Takara Shuzo, catalog number: RR001B; TaKaRa Ex Taq enzyme): 0.25 μl • 10× Ex-Taq® Buffer (Takara Shuzo, catalog number: RR001B): 5 μl • dNTP mixture (Takara Shuzo, catalog number: RR001B): 4 μl • 5 pmol/μl SEQ ID NO: 7 (hlyA-F) DNA: 2.5 μl • 5 pmol/μl SEQ ID NO: 8 (hlyA-R) DNA: 2.5 μl • 2×SYBR® Green (cyanine dye) (BMA, catalog number: 50513): 10 μl • Sterilized water: 15.75 μl • Template DNA (15 ng/μl): 10 μl 3-1-2) PCR Thermal Cycle Profile for Amplification of hlyA Gene
Each of the DNA solutions prepared in 2-3) mentioned above was diluted to 15 ng/μl with TE buffer, and 10 μl of the diluted solution was used as a template DNA in 3-1-1) mentioned above. That is, 150 ng of the template DNA was contained in 50 μl of the PCR mixture. As a negative control, 10 μl of TE buffer was used.
According to the PCR thermal cycle profile shown in 3-1-2) mentioned above, PCR was performed by using a real-time PCR apparatus i Cycler® (Biorad, model number: iQ).
(§5) For the detection of the hlyA gene amplification product, 3% agarose gel was used.

[1] = test system: 16S rRNA gene of Listeria; assay: PCR targeting the 16S rRNA gene after EMA treatment and topoisomerase poison or DNA gyrase poison treatment; format: cell-based, Listeria monocytogenes; settings: Listeria injured cells
Description: as §1, §2, §3, §4
The “PCR thermal cycle profile for amplification of 16S rRNA gene” mentioned in Example 3, 3-2) (Table 3) was applied.
Each of the DNA solutions prepared in 2-3) was diluted to 15 ng/μl with TE buffer, and 10 μl of the diluted solution was used as a template DNA in 3-1-1) or 3-2-1) mentioned above. That is, 150 ng of the template DNA was contained in 50 μl of the PCR mixture. As a negative control, 10 μl of TE buffer was used.
According to the PCR thermal cycle profile shown in 3-2-2) or 3-2-3) mentioned above, PCR was performed by using a real-time PCR apparatus i Cycler® (Biorad, model number: iQ).
as §5

[2] = test system: 23S rRNA gene of Enterobacter; assay: Real-time PCR and TM analysis targeting the 23S rRNA gene after ciprofloxacin treatment; format: cell-based, Enterobacter sakazakii; settings: ciprofloxacin 72 hours; for result of PCR: PCR terminated after 27 cycles
Description: (§6) A master mix (total volume: 50 μl) of the following composition was prepared. • Ex-Taq® (Takara Shuzo, catalog number: RR001B; TaKaRa Ex Taq enzyme: 0.25 μl • 10× Ex-Taq® Buffer (Takara Shuzo, catalog number: RR001B): 5 μl • dNTP mixture (Takara Shuzo, catalog number: RR001B): 4 μl • 5 pmol/μl SEQ ID NO: 1 (23S-F) DNA: 2.5 μl • 5 pmol/μl SEQ ID NO: 2 (23S-R) DNA: 2.5 μl • 5 pmol/μl SEQ ID NO: 3 (23S-MF) DNA: 2.5 μl • 5 pmol/μl SEQ ID NO: 4 (23S-MR) DNA: 2.5 μl • 2×SYBR® Green (cyanine dye) (BMA, catalog number: 50513): 10 μl • Sterilized water: […] • Template DNA (15 ng/μl): 10 μl
The primers of SEQ ID NOS: 1 and 2 are primers for amplifying substantially all the region of 23S rRNA, and they provide an amplification fragment of about 2840 bp mainly from gram-negative bacteria. The primers of SEQ ID NOS: 3 and 4 correspond to the center region of 23S rRNA, and they provide an amplification fragment of about 900 bp from gram-positive bacteria (also from gram negative bacteria).
Each of the DNA solutions prepared in 1-3) was diluted to 15 ng/μl with TE buffer, and 10 μl of the diluted solution was used as a template DNA in 2-1). That is, 150 ng of the template DNA was contained in 50 μl of the PCR reaction mixture. As a negative control, 10 μl of TE buffer was used.
According to the PCR thermal cycle profile shown in 2-2) mentioned above, PCR and TM analysis (melting temperature analysis) of the amplification product were performed by using a real-time PCR apparatus i Cycler® (Biorad, model number: iQ). The threshold value (boundary value) of real-time PCR was set to a value obtained by multiplying the standard deviation SD of fluorescence amounts obtained with SYBR® Green (cyanine dye) for 0 to 10 cycles by 10. In each real-time PCR amplification curve, number of cycle showing a value exceeding the threshold value is referred to as “Ct value” hereafter.

[3] = test system: 23S rRNA gene of Listeria; assay: Real-time PCR targeting the 23S rRNA gene after ciprofloxacin treatment; format: cell-based, Listeria monocytogenes; settings: PCR terminated after 20 cycles
Description: as §6
The primers of SEQ ID NOS: 1 and 2 are primers for amplifying substantially all the region of 23S rRNA, and they provide an amplification fragment of about 2840 bp mainly from gram-negative bacteria. […]
According to the PCR thermal cycle profile shown in 2-2) mentioned above, PCR and TM analysis (melting temperature analysis) of the amplification product were performed by using a real-time PCR apparatus i Cycler® (Biorad, model number: iQ). The threshold value (boundary value) of real-time PCR was set to a value obtained by multiplying the standard deviation SD of fluorescence amounts obtained with SYBR® Green (cyanine dye) for 0 to 10 cycles by 10. […]

[4] = test system: 16S rRNA gene of Citrobacter; assay: PCR targeting the 16S rRNA gene after EMA treatment, electrophoresis; format: cell-based, Citrobacter koseri; settings: EMA-treated injured cells of Citrobacter, EMA 10 μl of 1000 μg/ml per 1 ml, 4° C. 30 minutes, visible light 10 minutes
Description: (§7) The live cell counts of these live cell suspensions were Escherichia coli: 3.2×10^8 cfu/ml, Citrobacter: 6.7×10^7 cfu/ml, Salmonella: 1.9×10^8 cfu/ml, and Klebsiella: 4.8×10^8 cfu/ml.
(§8) 10 μl of an EMA solution prepared at a concentration of 1000 μg/ml by dissolving EMA (Sigma, catalog number: E2028) in sterilized water, and filtering the solution through a 0.45-μm microfilter was added to each of the suspensions of the gram-negative bacteria (live cells and injured cells) and gram-positive bacteria (live cells and injured cells) in a volume of 1 ml, and the mixture was left at 4° C. for 30 minutes under light shielding. Then, the suspension was placed on ice, and irradiated with visible light of 500 W from a lamp (FLOOD PRF, 100 V, 500 W, Iwasaki Electric Co., Ltd.) disposed at a distance of 20 cm from the suspension for 10 minutes. The above steps of adding the EMA solution and irradiating visible light may also be referred to as the “EMA treatment”.
(§9) 990 μl of physiological saline was added to each microtube, and the mixture was sufficiently stirred. […]

[5] = test system: 16S rRNA gene of Klebsiella; assay: as above; format: cell-based, Klebsiella oxytoca; settings: EMA-treated injured cells of Klebsiella, EMA 10 μl of 1000 μg/ml per 1 ml, 4° C. 30 minutes, visible light 10 minutes
Description: as §7, §8, §9

[6] = test system: 16S rRNA gene of the other bacteria; assay: as above; format: cell-based; settings: EMA-treated injured cells of the other bacteria, EMA 10 μl of 1000 μg/ml per 1 ml, 4° C. 30 minutes, visible light 10 minutes
Description: as §7
(§10) The live cell counts of these live cell suspensions were Bacillus: 3.0×10^7 cfu/ml, Listeria: 1.3×10^8 cfu/ml, and Staphylococcus: 1.1×10^6 cfu/ml.
as §8, §9

[7] = test system: 23S rRNA gene of gram-negative bacteria and gram-positive bacteria; assay: PCR targeting the 23S rRNA gene after EMA treatment, electrophoresis; format: cell-based; settings: 150 ng template DNA in 50 μl
Description: as §7, §10, §8, §9

[8] = poison used together with EMA treatment, 30° C. for 30 minutes
[9] = EMA treatment alone (5 minutes, visible light 5 minutes)

COc1cc([C@@H]2c3cc4c(cc3[C@@H](O[C@@H]3O[C@@H]5CO[C@@H](C)O[C@H]5[C@H](O)[C@H]3O)[C@H]3COC(=O)[C@H]23)OCO4)cc(OC)c1O [etoposide]
inhibition of DNA amplification (hlyA gene of Listeria; [8]): markedly inhibited | inhibition of DNA amplification [1, 8]: markedly inhibited

O=C(O)c1cn(C2CC2)c2cc(N3CCNCC3)c(F)cc2c1=O [ciprofloxacin]
Ct (injured cells, 72 hours of Cip)−Ct (injured cells, No Cip) ([2]; Enterobacter injured cells): 17 | result of PCR ([2]; Enterobacter injured cells): negative | Ct (live cells, 72 hours of Cip)−Ct (live cells, No Cip) ([2]; Enterobacter live cells): 13 | result of PCR ([2]; Enterobacter live cells): positive | TM pattern analysis of the PCR amplification product ([2]; Enterobacter sakazakii injured cells): is not the targeted amplification product | TM pattern analysis of the PCR amplification product ([2]; Enterobacter sakazakii live cells): corresponds to the 23S rRNA gene as the target | result of PCR ([3]; Listeria injured cells): negative | result of PCR ([3]; Listeria live cells): positive

CC[n+]1c(-c2ccccc2)c2cc(N=[N+]=[N-])ccc2c2ccc(N)cc21 [EMA, ethidium monoazide]
PCR amplification product [4]: no PCR amplification product was observed | PCR amplification product [5]: no PCR amplification product was observed | PCR amplification product [6]: amplification products were observed | inhibition of PCR ([7]; injured cells at a level of 10^8 cfu/ml): completely inhibited | inhibition of PCR ([7]; live cells): not substantially completely inhibited | inhibition of DNA amplification (hlyA gene of Listeria; [9]): only slightly inhibited | inhibition of DNA amplification [1, 9]: only slightly inhibited

CC[C@@]1(O)C(=O)OCc2c1cc1n(c2=O)Cc2cc3ccccc3nc2-1 [camptothecin]
inhibition of DNA amplification [1, 8]: markedly inhibited

O=C1c2c(O)ccc(O)c2C(=O)c2c(NCCNCCO)ccc(NCCNCCO)c21 [mitoxantrone]
inhibition of DNA amplification (hlyA gene of Listeria; [8]): markedly inhibited

Cc1c2ccncc2c(C)c2c1[nH]c1ccccc12 [ellipticine]
inhibition of DNA amplification [1, 8]: markedly inhibited

Reference: patent US9567625B2, “Method for detection of microorganism and kit for detection of microorganism” (MORINAGA MILK INDUSTRY CO., LTD., priority 2006, dated 2017)
